What is called IC50 is the concentration that gives 50% inhibition. A low value points to inhibition by little substance.

Where two headings read alike, the source gives them in different places.

In one experiment the test system is plasma fibrinogen. Description: Fibrinogen levels in rats (electro immunoassay). The class given is in vivo, rat. As to conditions: male Sprague-Dawley rats. As to the method:
Fifty-Six male Sprague-Dawley rats were obtained from Charles River Laboratories. All animals were allowed normal rat chow (Ralston-Purina) and water ad libitum in temperature-controlled rooms, under a 12-hour light, 12-hour dark cycle beginning with lights on at 6 AM. Rats were distributed to 7 groups of 8 rats per group. […] Control animals received vehicle alone. […] CI-719 is gemfibrozil. […] The plasma fibrinogen plasma levels were determined by electro immunoassay. […] Data are shown in FIG. 12 as mean±SEM of as percent of control fibrinogen levels. *p<0.001, two-sided unpaired t-test, compared to control.

Another experiment concerns the target CYP2D6 (Homo sapiens, UniProt P10635). Nature of the experiment: biochemical. As to the method: (§1) Human livers, HLM141, HLM143, and HLM144 were selected from the University of Washington Human Liver Bank for this study. […] The actual concentrations used for each of the other probes are specified below. […] The seven isoforms and the metabolic pathway of each of the probes used to monitor specific isoform activity are listed below.
CYP2D6: The O-demethylation of dextromethorphan (5 μM). The reaction is monitored by high performance liquid chromatography (HPLC) using florescence detection.

The next experiment has as its target CYP3A4 (Homo sapiens, UniProt P08684). Description: biochemical. On the procedure:
as §1
CYP3A4: The 10-hydroxylation of (R)-warfarin (0.5 mM). The reaction is monitored by quantitative GC/MS using 10-hydroxywarfarin-(d5-phenyl) as the internal standard.

In the next experiment the target is T1, CYP2A6 (Homo sapiens, UniProt P11509).
T1 sequence (P11509 1-494): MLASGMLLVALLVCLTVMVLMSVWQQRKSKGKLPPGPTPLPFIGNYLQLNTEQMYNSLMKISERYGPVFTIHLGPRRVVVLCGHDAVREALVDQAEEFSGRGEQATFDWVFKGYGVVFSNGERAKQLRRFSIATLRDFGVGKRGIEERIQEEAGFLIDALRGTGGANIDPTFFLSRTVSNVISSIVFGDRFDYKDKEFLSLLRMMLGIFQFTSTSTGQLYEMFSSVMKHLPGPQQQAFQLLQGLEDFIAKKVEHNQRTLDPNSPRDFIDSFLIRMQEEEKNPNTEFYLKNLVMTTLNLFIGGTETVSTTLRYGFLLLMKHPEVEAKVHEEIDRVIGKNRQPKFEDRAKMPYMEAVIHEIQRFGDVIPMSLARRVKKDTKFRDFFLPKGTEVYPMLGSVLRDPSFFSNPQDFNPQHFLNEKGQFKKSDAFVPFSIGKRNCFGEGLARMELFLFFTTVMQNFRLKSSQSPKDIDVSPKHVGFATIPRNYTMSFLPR
Description: biochemical. On the procedure: as §1
CYP2A6: The 7-hydroxylation of coumarin (4 μM). The reaction is monitored by HPLC using florescence detection.

Chain of CYP3A4 (P08684 whole entry): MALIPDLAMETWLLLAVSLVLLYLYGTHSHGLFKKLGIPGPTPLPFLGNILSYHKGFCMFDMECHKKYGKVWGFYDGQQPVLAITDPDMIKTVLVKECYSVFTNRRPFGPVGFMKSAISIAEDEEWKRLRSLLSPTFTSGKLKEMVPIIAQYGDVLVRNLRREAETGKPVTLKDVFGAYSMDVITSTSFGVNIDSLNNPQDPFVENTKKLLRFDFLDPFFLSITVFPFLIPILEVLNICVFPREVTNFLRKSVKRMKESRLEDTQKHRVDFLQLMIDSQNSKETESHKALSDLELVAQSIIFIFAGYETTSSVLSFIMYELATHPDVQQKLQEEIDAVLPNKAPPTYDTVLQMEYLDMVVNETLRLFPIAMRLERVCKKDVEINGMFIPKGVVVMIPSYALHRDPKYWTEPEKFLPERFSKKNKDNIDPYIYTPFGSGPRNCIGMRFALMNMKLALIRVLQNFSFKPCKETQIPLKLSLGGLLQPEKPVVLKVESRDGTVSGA
Chain of CYP2D6 (P10635 whole entry, canonical isoform): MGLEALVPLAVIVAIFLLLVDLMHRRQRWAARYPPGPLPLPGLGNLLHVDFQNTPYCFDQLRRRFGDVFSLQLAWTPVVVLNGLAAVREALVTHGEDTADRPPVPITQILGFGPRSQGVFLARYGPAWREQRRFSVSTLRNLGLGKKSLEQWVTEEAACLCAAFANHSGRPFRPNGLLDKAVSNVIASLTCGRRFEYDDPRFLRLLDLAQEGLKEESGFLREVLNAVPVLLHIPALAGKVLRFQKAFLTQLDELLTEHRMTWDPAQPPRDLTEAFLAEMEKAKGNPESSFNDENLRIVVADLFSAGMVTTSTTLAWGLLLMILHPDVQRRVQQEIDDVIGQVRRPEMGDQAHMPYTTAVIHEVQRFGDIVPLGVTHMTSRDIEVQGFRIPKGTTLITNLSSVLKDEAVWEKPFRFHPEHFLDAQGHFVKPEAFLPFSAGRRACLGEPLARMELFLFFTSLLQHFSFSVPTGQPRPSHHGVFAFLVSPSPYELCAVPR

With `CC(C)(CCCCOCCCCC(C)(C)C(=O)O)C(=O)O` [Gemcabene, 6,6′-oxybis(2,2-dimethylhexanoic acid)], the “reduction in plasma fibrinogen levels compared with control” value is listed as 52% in the experiment on plasma fibrinogen (30 mg/kg/day oral, 14 days) and 57% with plasma fibrinogen (100 mg/kg/day oral, 14 days (PD 72953)). Moreover, the IC50 against CYP2D6 was over 1.5 mM; at CYP2D6 (human, microsomes), over 1.5 mM; on CYP3A4 it was over 1.5 mM; on CYP3A4 (human, microsomes), over 1.5 mM; on CYP2A6 it was over 1.5 mM; against CYP2A6 (human, microsomes), over 1.5 mM.

The values are drawn from patent publication US20170172955A1, “Treatment of Mixed Dyslipidemia” (priority 2015, published 2017).
